Assay results taken from US20080234368A9, “Therapeutic compositions and methods of use” (Trustees of Dartmouth College, priority 1998, published 2008).
pIC50: −log10 of the molar value.

Columns and labels:
COX-2 enzymatic activity = target: T1, COX-2 enzymatic activity (Mus musculus, UniProt Q05769); assay: Prostaglandin production in RAW cells with enzyme synthesis already induced; assay type: cell-based; conditions: added after enzyme synthesis induced; data not shown
T1 construct: added to RAW cells in which synthesis of these two enzymes has already been induced; endogenous in cells; host or cells: RAW 264.7 mouse macrophage-like cells, enzyme synthesis pre-induced
T1 sequence (Q05769 18-604): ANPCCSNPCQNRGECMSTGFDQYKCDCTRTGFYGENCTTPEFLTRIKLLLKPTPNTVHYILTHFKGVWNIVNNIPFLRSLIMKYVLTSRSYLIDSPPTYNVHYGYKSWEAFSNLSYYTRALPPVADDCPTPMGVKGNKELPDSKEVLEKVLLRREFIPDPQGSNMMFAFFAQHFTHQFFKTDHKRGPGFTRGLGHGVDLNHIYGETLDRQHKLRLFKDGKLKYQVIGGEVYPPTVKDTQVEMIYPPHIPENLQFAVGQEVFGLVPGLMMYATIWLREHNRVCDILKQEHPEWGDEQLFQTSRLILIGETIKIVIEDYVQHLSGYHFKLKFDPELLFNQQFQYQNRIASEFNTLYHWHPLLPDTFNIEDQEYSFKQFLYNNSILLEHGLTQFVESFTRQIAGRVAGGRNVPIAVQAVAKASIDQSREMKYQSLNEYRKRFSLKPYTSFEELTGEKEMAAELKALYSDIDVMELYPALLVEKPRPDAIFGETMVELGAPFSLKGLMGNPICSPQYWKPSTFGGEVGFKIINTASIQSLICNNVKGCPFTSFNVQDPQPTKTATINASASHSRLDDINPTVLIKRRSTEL
Description: These effects of CDDO have been seen in primary mouse macrophages, a mouse macrophage-like tumor cell line (RAW 264.7), and in non-neoplastic human colon fibroblasts. […] Neither iNOS nor COX-2 expression can be detected in these cells until they are stimulated by an inflammatory mediator such as IFN-γ, or LPS. […] The above effects on INOS and COX-2 are also reflected in the cumulative production of their respective enzyme products, NO and PGE2, as measured in primary macrophages (FIG. 14C). […] Likewise, the actions of CDDO are not blocked by the glucocorticoid antagonist, RU-486, which is known to bind to the glucocorticoid receptor (data not shown). In these regards, CDDO is identical to the other oleanolic acid derivatives previously studied (Suh et al., 1998).

[1] = system: PC12 pheochromocytoma cells; assay: Neuronal differentiation / neurite outgrowth, image analysis; assay type: cell-based, rat
Experimental: (§1) CDDO induces monocytic differentiation in the poorly differentiated LCDB acute myelogenous leukemia cell line, derived from a chemotherapy-resistant patient at the NCI Pediatric Oncology Branch. FIG. 11 illustrates LCDB cells seeded in RPMI 1640/2% FBS, either alone (11A), with 2.5 ng/ml TGF-β1 (11B), with 10^−8 M CDDO (11C), or with both TGF-β1 and CDDO (11D). After 48 h, cytospin slide preparations were made and stained for α-naphthyl acetate esterase activity (kit from Sigma). PC12 cells were cultured for 5 days in gridded dishes in DMEM/10% FBS and 5% horse serum (Smith et al., 1997), either alone (11E), with 100 ng/ml 7S NGF (11F), with 10^−6 M CDDO (11G), or with both NGF and CDDO (11H). […] Methods for quantitative image analysis of size of cells and neurites have been described (De 1a Torre et al., 1997). Control cells in FIG. 11E are approximately 10 μm in diameter. 3T3-L1 cells were grown to confluency in DMEM/5% calf serum, and then treated once with CDDO in DMEM/10% FBS (FIG. 12A) or with CDDO and/or LG100268 in DMEM/10% FBS (FIG. 12B). Every two days thereafter, medium was changed to DMEM/10% FBS, without added CDD0 or LG100268. Cells were harvested on day 8 (FIG. 12A) or day 6 (FIG. 12B), and GPDH was measured in lysates, using a standard assay for consumption of NADH at 340 nm (Wise and Green, 1979).
The rat pheochromocytoma cell line, PC12, has been widely used to study neuronal development and differentiation. Treatment of these tumor cells with NGF is known to induce a neuronal phenotype, with extensive neurite outgrowth (Greene and Rischler, 1976; Guroff 1985). CDDO markedly potentiates these effects of NGF. FIGS. 11E and F show the induction of neurite outgrowth by NGF (100 ng/ml). […] When used in combination with NGF, CDDO (FIG. 11H) almost doubled the number of primary neurites/cell (from 1.2±0.2 S.E.M. to 2.1±0.1, p<0.001), and caused a greater than 3-fold increase in length of neurites (from 28±6 to 99±9 microns, p<0.001), and a 5-fold increase in neurite branching/cell (from 0.23±0.06 to 1.13±0.08, p<0.001). Thus, CDDO enhances neuronal differentiation of PC12 cells by increasing cell size, as well as the extent and complexity of neurite arborization.

COX-2 = assay: TPA-induced COX-2 in 184B5/HER mammary epithelial cells; assay type: cell-based, human; conditions: 184B5/HER cells
Description: These cells were selected because of the importance of stromal cell COX-2 in colon carcinogenesis (Oshima et al., 1996). […] Although CDDO effectively blocks the induction of COX-2 by agents such as IFN-γ, LPS, TNF-α, and IL-1, CDDO is ineffective when TPA is used as the inducer of COX-2. This has been seen in 18Co cells, as well as in the human mammary epithelial cell line, 184B5/HER (Zhai et al., 1993).

3T3-L1 fibroblasts = assay: Adipogenic differentiation, induction of GPDH; assay type: cell-based
Experimental: as §1, with “1979). […]” for “1979).”

[2] = system: IFN-γ-induced NO production in mouse macrophages; assay: Inhibition of IFN-γ induced NO production in mouse macrophages; assay type: cell-based; conditions: read-out: IC50, inhibition of IFN-γ induced NO production
Experimental: The inhibitory activities of these compounds and dexamethasone on IFN-γ induced NO production in mouse macrophages is shown below in Table 1. The following procedure for the assay ws used. Macrophages were harvested from female mice injected intraperitoneally four days previously with 4% thioglycollate. These cells were seeded in 96-well tissue culture plates and incubated with 4 ng/mL IFN-γ in the presence or absence of inhibitory test compounds. After 48 hours NO production (measured as nitrite by the Griess reaction) was determined. Full details of the assay are given in Ding et al., 1990; Bogdan et al., 1992.

[3] = system: NO production in primary mouse macrophages; assay: NO production induced by LPS and IFN-γ in primary mouse macrophages (FIG. 7); assay type: cell-based
[4] = CDDO 10^−6 M in combination with NGF 100 ng/ml, 5 days

## CC1(C)CC[C@]2(C(=O)O)CC[C@]3(C)[C@H](C(=O)C=C4[C@@]5(C)C=C(C#N)C(=O)C(C)(C)[C@@H]5CC[C@]43C)[C@@H]2C1 [Compound 6, 2-cyano-3,12-dioxoolean-1,9-dien-28-oic acid]
COX-2 enzymatic activity
  immediate effect on prostaglandin production (direct inhibition of COX-2): no immediate effect
[1]; CDDO 10^−6 M by itself, 5 days
  cell morphology: larger, flatter morphology
  neurite formation: does not induce neurite formation
[1]; [4]
  length of neurites: 99±9 microns
  neurite branching/cell: 1.13±0.08
[1]; CDDO 10^−6 M in combination with NGF 100 ng/ml, 5 days, ± S.E.M.
  number of primary neurites/cell: 2.1±0.1
[1]; CDDO in combination with NGF
  increase in length of neurites over NGF alone: greater than 3 fold
  increase in neurite branching/cell over NGF alone: 5 fold
COX-2
  blocking of COX-2 induction with TPA as inducer: ineffective
3T3-L1 fibroblasts; CDDO with LG100268, day 6
  adipogenic differentiation, combination with RXR-selective retinoid LG100268: acts synergistically
3T3-L1 fibroblasts; doses as low as 10^−8 M, without insulin, dexamethasone, IBMX, day 8
  adipogenic differentiation, induction of GPDH: caused adipogenic differentiation
[2]
  pIC50: 9.00
[3]
  activity on LPS and IFN-γ induced NO production compared with dexamethasone (FIG. 7): favorable to that of dexamethasone
